This note sets out measurements from patent publication US7713937B2, “Synthetic peptide amides and dimeric forms thereof” (Cara Therapeutics, Inc., priority 2006, dated 2010).

In data set [1] the target is T1, mouse kappa opioid receptor (mKOR) (Mus musculus, UniProt P33534).
T1 construct: Stimulation of Endogenous Mouse Kappa-Opioid Receptor in R1.G1 Cells; host or cells: R1.G1 mouse thymoma cells
Briefly: cell-based. As to conditions: for Emax: read-out: mKOR Efficacy(%).

Data set [2] deals with T2, human kappa opioid receptor (hKOR) (Homo sapiens, UniProt P41145).
T2 construct: expressed in transfected cells; host or cells: HEK-293 cells, transient transfection with Fugene6
T2 sequence (P41145 whole entry): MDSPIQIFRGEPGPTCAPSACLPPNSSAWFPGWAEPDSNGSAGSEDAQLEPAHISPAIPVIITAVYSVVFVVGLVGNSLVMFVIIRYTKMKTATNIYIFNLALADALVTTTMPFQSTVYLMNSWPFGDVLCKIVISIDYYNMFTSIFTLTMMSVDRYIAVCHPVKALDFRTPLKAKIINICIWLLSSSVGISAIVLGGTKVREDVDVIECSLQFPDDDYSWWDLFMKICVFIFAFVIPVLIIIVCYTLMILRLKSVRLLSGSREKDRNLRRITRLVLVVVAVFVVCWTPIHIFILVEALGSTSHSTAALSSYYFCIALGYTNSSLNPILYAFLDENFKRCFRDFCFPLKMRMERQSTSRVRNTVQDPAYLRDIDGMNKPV
The data set is described as follows: cell-based. The settings on record: for Emax: HEK293, read-out: hKOR Efficacy(%).

A further data set deals with ICR mice. The data set is described as follows: Acetic acid-induced writhing assay in mice. It is filed as in vivo, mouse. The settings on record: iv; for ED50 (mg/kg, iv, 15 min post-dose): mice.
The target in the next data set is T3, human mu opioid receptor (Homo sapiens, UniProt P35372).
T3 construct: expressed in transfected cells
T3 sequence (P35372 whole entry): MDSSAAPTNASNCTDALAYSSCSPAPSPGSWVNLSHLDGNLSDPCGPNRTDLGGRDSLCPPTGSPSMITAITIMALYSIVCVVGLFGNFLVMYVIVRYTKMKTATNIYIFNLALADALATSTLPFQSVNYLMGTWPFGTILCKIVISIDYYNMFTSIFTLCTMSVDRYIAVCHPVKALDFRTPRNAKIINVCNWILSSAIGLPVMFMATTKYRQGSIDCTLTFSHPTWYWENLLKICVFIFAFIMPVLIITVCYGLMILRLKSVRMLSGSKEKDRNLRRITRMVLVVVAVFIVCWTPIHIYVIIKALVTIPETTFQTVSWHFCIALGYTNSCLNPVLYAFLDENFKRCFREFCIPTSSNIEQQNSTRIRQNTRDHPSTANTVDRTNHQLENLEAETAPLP
Briefly: Similar assay for potency on the human mu opioid receptor. It is filed as cell-based. As to the method:
Synthetic peptide amides of the invention were tested in a similar assay for potency on the human mu opioid receptor.
The synthetic peptide amide (53) was tested in a similar assay for potency on the human mu opioid receptor.

Data set [3] is described as follows: Caco-2 (TC7 subclone) membrane permeability, apical-to-basolateral. The settings on record: human.

pEC50: −log10 of the molar value. Square brackets hold non-standard residues; d marks the D form. Side chains are listed from the residue outwards. Peptide text beside a SMILES is read from it. * marks the point of attachment. Piperidinyl(4-(1-Pro-OH)) = O=C(O)[C@@H]1CCCN1C1CCN(*)CC1; d(hArg) = N=C(N)NCCCC[C@@H](N)C(=O)O; dOrn = NCCC[C@@H](N)C(=O)O

T1 sequence (P33534 whole entry): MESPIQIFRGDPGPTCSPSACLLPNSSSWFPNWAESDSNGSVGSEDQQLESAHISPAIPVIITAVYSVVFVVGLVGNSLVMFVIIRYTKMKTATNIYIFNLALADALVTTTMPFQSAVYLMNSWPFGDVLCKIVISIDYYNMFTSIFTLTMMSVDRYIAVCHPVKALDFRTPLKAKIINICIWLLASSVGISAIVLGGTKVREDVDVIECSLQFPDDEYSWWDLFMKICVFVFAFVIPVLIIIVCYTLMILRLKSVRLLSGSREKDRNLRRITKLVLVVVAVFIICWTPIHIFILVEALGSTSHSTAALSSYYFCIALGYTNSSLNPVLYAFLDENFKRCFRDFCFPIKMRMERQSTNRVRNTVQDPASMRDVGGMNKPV

Take `CC(C)C[C@@H](NC(=O)[C@@H](Cc1ccccc1)NC(=O)[C@H](N)Cc1ccccc1)C(=O)N[C@H](CCCCN)C(=O)N1CCC(N)(C(=O)O)CC1` [Compound (2), D-Phe-D-Phe-D-Leu-D-Lys-[ω(4-aminopiperidine-4-carboxylic acid)]-OH]: in data set [1], the pEC50 was 10.32 and the Emax is 96%. In data set [2], the pEC50 is 9.80 and the Emax came out at 99%. Moreover, the “ED50 (mg/kg, iv, 15 min post-dose)” value in the data set on ICR mice amounted to 0.07 mg/kg. In the data set on ICR mice (240 min post-ED90), the “% MPE (240 min post-ED90)” value came out at 81 ± 4%. Moreover, the “% MPE (300 min post-ED90)” value in the data set with ICR mice (300 min post-ED90) is 84 ± 4%.
For the compound `CC(C)C[C@@H](NC(=O)[C@@H](Cc1ccccc1)NC(=O)[C@H](N)Cc1ccccc1)C(=O)N[C@H](CCCCNC(=N)N)C(=O)N1CCC(N2CCC[C@H]2C(=O)O)CC1` [Compound (5), D-Phe-D-Phe-D-Leu-D-Har-[N-(4-piperidinyl)-L-proline]-OH] (H-[dF][dF][dL][d(hArg)]-{Piperidinyl(4-(1-Pro-OH))}), in data set [1], the pEC50 is 10.47 and the Emax stood at 89%. For the same compound, in data set [2], the pEC50 was 9.77 and the Emax came to 98%. Besides, the “ED50 (mg/kg, iv, 15 min post-dose)” value with ICR mice is 0.01 mg/kg. In the data set with ICR mice (180 min post-ED90), the “% MPE (180 min post-ED90)” value stood at 54 ± 10%.
Consider `CC(C)C[C@@H](NC(=O)[C@@H](Cc1ccccc1)NC(=O)[C@H](N)Cc1ccccc1)C(=O)N[C@H](CCCN)C(=O)N1CCCN(C(=N)N)CC1` [Compound (53), D-Phe-D-Phe-D-Leu-D-Orn-[4-amidinohomopiperazine amide]], for which the pEC50 in data set [1] was 10.52; in data set [2], 9.82; on human mu opioid receptor, at most 6.00. The Emax in data set [2] came to 103%.
On to `CC(C)C[C@@H](NC(=O)[C@@H](Cc1ccccc1)NC(=O)[C@H](N)Cc1ccccc1)C(=O)N[C@H](CCCCN)C(=O)N1CCN(c2ccccn2)CC1` [Compound (65), D-Phe-D-Phe-D-Leu-D-Lys-[1-(pyridin-2-yl)piperazine amide]], for which the negative-log EC50 (pEC50) in data set [1] was 10.33; in data set [2], 11.23. The Emax in data set [1] was found to be 89%; in data set [2], 100%.
As to `CC(C)C[C@@H](NC(=O)[C@@H](Cc1ccccc1)NC(=O)[C@H](N)Cc1ccccc1)C(=O)N[C@H](CCCCN)C(=O)N1CCN(c2nccs2)CC1` [Compound (66), D-Phe-D-Phe-D-Leu-D-Lys-[2-(piperazin-1-yl)thiazole amide]], the pEC50 was 10.08 in data set [1] and 10.51 in data set [2]. Besides, the Emax in data set [1] is 85%; in data set [2], 92%.
Consider `CC(C)C[C@@H](NC(=O)[C@@H](Cc1ccccc1)NC(=O)[C@H](N)Cc1ccccc1)C(=O)N[C@H](CCCCN)C(=O)N1CCN(S(=O)(=O)N(C)C)CC1` [Compound (67), D-Phe-D-Phe-D-Leu-D-Lys-[N,N-dimethylpiperazine-1-sulfonamide amide]], for which the pEC50 is 9.71 in data set [1] and 10.71 in data set [2]. The Emax came out at 86% in data set [1] and 101% in data set [2].
For `CC(C)C[C@@H](NC(=O)[C@@H](Cc1ccccc1)NC(=O)[C@H](N)Cc1ccccc1)C(=O)N[C@H](CCCCN)C(=O)N1CCN(S(C)(=O)=O)CC1` [Compound (68), D-Phe-D-Phe-D-Leu-D-Lys-[1-(methylsulfonyl)piperazine amide]] the same measures were 9.61, 11.14, 82% and 100%.
Turning to `CC(C)C[C@@H](NC(=O)[C@@H](Cc1ccccc1)NC(=O)[C@H](N)Cc1ccccc1)C(=O)N[C@H](CCCCN)C(=O)N1CCN(S(=O)(=O)c2ccccc2)CC1` [Compound (69), D-Phe-D-Phe-D-Leu-D-Lys-[1-(phenylsulfonyl)piperazine amide]], in data set [1], the pEC50 is 9.28 and the Emax was 87%. In data set [2], the pEC50 was 10.96 and the Emax was 101%.
`CC(C)C[C@@H](NC(=O)[C@@H](Cc1ccccc1)NC(=O)[C@H](N)Cc1ccccc1)C(=O)N[C@H](CCCCN)C(=O)N1CCN(C(=O)c2ccccc2)CC1` [Compound (70), D-Phe-D-Phe-D-Leu-D-Lys-[phenyl(piperazin-1-yl)methanone amide]]: in data set [1], the pEC50 is 9.46 and the Emax was 92%. Moreover, in data set [2], the pEC50 is 10.92 and the Emax came out at 94%.
Regarding `CC(C)C[C@@H](NC(=O)[C@@H](Cc1ccccc1)NC(=O)[C@H](N)Cc1ccccc1)C(=O)N[C@H](CCCCN)C(=O)N1CCS(=O)(=O)CC1` [Compound (71), D-Phe-D-Phe-D-Leu-D-Lys-[thiolmorpholine-1,1-dioxide amide]], in data set [1], the pEC50 was 9.72 and the Emax is 89%. Besides, in data set [2], the pEC50 is 10.51 and the Emax is 103%.
For `CC(C)C[C@@H](NC(=O)[C@@H](Cc1ccccc1)NC(=O)[C@H](N)Cc1ccccc1)C(=O)N[C@H](CCCCN)C(=O)NCc1ccc(C(F)(F)F)nc1` [Compound (72), D-Phe-D-Phe-D-Leu-D-Lys-[6-trifluoromethyl-3-aminomethylpyridine amide]], in that order: 9.31, 85%, 10.18 and 95%.
For `CC(C)C[C@@H](NC(=O)[C@@H](Cc1ccccc1)NC(=O)[C@H](N)Cc1ccccc1)C(=O)N[C@H](CCCCN)C(=O)NCC1CCOCC1` [Compound (73)] the same measures were 9.20, 89%, 11.47 and 99%.
For `CC(C)C[C@@H](NC(=O)[C@@H](Cc1ccccc1)NC(=O)[C@H](N)Cc1ccccc1)C(=O)N[C@H](CCCCN)C(=O)NCc1ccc2[nH]c(=O)[nH]c2c1` [Compound (74), D-Phe-D-Phe-D-Leu-D-Lys-[5-(aminomethyl)-1H-benzo[d]imidazol-2(3H)-one amide]] the same measures were 10.14, 87%, 11.20 and 99%.
`CC(C)C[C@@H](N)C(=O)N[C@H](CCCN)C(=O)N[C@@H](CCCCNC(=O)[C@@H](CCCN)NC(=O)[C@@H](CC(C)C)NC(=O)[C@@H](Cc1ccccc1)NC(=O)[C@H](N)Cc1ccccc1)C(=O)O` [Compound (76), D-Phe-D-Phe-D-Leu-D-Orn-[eLys(D-Orn-D-Leu-H)]-OH]: in data set [1], the pEC50 is 8.97 and the Emax came out at 96%. Besides, in data set [2], the pEC50 was 9.59 and the Emax came out at 83%.
Take `CC(C)C[C@@H](NC(=O)[C@H](N)Cc1ccccc1)C(=O)N[C@H](CCCN)C(=O)N[C@@H](CCCCNC(=O)[C@@H](CCCN)NC(=O)[C@@H](CC(C)C)NC(=O)[C@@H](Cc1ccccc1)NC(=O)[C@H](N)Cc1ccccc1)C(=O)O` [Compound (78)]: in data set [1], the negative-log EC50 (pEC50) was 9.62. Further, the Emax in data set [2] was found to be 95%.
On to `CC(C)C[C@@H](NC(=O)[C@@H](Cc1ccccc1)NC(=O)[C@H](N)Cc1ccccc1)C(=O)N[C@H](CCCN)C(=O)NCCCC[C@H](NC(=O)[C@H](N)CCCN)C(=O)O` [Compound (79)], for which, in data set [1], the pEC50 was 10.10 and the Emax was 101%. Further, the pEC50 in data set [2] was 9.89.
For `CC(C)C[C@@H](NC(=O)[C@@H](Cc1ccccc1)NC(=O)[C@H](N)Cc1ccccc1)C(=O)N[C@H](CCCN)C(=O)NCCCC[C@H](NC(=O)[C@@H](CCCN)NC(=O)[C@@H](CC(C)C)NC(=O)[C@@H](Cc1ccccc1)NC(=O)[C@H](N)Cc1ccccc1)C(N)=O` [Compound (80)] (H-[dF][dF][dL][dOrn]K([dOrn-dL-dF-dF])-NH2), in that order: 8.89, 91% and 9.60.
On to `CC(C)C[C@@H](NC(=O)[C@@H](Cc1ccccc1)NC(=O)[C@H](N)Cc1ccccc1)C(=O)N[C@H](CCCN)C(=O)NCCCC[C@H](NC(=O)[C@H](N)CCCN)C(=O)N1CCNCC1` [Compound (81)], for which, in data set [1], the pEC50 is 10.30 and the Emax came to 96%. In data set [2], the negative logarithm of the EC50 (pEC50) is 9.55 and the Emax was 96%.
`CC(C)C[C@@H](NC(=O)[C@@H](Cc1ccccc1)NC(=O)[C@H](N)Cc1ccccc1)C(=O)N[C@H](CCCN)C(=O)N1CCOC(C(=O)O)C1` (stereo partly drawn) [Compound (90), D-Phe-D-Phe-D-Leu-D-Orn-[R/S-2-carboxymorpholine]-OH]: in data set [1], the pEC50 is 9.75 and the Emax was 100%. Besides, in data set [2], the pEC50 is 9.80 and the Emax amounted to 100%.
With `CNC(=C[N+](=O)[O-])NCCSCc1ccc(CN(C)C)o1` [Ranitidine, ranitidine], the Papp A→B at 60 min, 10 μM in data set [3] is 0.5 ×10⁻⁶ cm/s.
